From patent publication US20220340597A1, “HEXAHYDRO-1H-PYRAZINO[1,2-A]PYRAZINE COMPOUNDS FOR THE TREATMENT OF AUTOIMMUNE DISEASE” (Hoffmann-La Roche Inc., priority 2019, published 2022)

Key:
human TLR8 = target: T1, human TLR8 (Homo sapiens, UniProt Q9NR97); assay: HEK293-Blue-hTLR-8 cells assay
T1 sequence (Q9NR97 27-1041): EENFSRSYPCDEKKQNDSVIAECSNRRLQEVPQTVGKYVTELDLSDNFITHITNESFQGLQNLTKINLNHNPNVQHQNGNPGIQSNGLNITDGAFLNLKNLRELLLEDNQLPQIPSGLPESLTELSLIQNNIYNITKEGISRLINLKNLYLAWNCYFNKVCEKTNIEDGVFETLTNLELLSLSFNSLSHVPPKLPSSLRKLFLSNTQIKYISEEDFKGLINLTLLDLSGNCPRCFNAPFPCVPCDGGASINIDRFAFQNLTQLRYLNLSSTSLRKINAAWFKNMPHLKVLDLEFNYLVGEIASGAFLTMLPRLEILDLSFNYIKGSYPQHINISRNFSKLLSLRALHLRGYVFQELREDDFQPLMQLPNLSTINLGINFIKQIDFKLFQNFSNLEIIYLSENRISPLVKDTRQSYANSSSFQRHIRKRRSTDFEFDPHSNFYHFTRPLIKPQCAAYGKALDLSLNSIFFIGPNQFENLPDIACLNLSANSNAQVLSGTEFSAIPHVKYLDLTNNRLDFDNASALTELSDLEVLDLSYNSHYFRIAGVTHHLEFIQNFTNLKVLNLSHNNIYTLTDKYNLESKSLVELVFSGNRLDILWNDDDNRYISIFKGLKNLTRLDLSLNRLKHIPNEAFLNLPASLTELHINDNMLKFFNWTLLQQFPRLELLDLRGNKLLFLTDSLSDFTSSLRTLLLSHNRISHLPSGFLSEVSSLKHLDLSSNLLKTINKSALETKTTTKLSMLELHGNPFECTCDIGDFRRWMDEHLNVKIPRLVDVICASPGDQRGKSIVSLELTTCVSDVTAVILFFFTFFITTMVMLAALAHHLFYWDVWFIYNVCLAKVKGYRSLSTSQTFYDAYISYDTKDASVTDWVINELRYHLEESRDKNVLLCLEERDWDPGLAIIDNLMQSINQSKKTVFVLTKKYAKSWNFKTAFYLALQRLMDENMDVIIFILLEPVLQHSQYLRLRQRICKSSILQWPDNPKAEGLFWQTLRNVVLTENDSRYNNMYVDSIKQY
Description: HEK293-Blue-hTLR-8 Cells Assay:
A stable HEK293-Blue-hTLR-8 cell line was purchased from InvivoGen (Cat. #: hkb-htlr8, San Diego, Calif., USA). These cells were originally designed for studying the stimulation of human TLR8 by monitoring the activation of NF-κB. A SEAP (secreted embryonic alkaline phosphatase) reporter gene was placed under the control of the IFN-β minimal promoter fused to five NF-κB and AP-1-binding sites. The SEAP was induced by activating NF-κB and AP-1 via stimulating HEK-Blue hTLR8 cells with TLR8 ligands. Therefore, the reporter expression was declined by TLR8 antagonist under the stimulation of a ligand, such as R848, for incubation of 20 hrs. The cell culture supernatant SEAP reporter activity was determined using QUANTI-Blue™ kit (Cat. #: rep-qb1, Invivogen, San Diego, Calif., USA) at a wavelength of 640 nm, a detection medium that turns purple or blue in the presence of alkaline phosphatase.

human TLR7 = target: T2, human TLR7 (Homo sapiens, UniProt Q9NYK1); assay: HEK293-Blue-hTLR-7 cells assay; assay type: cell-based; settings: HEK293-Blue-hTLR7 cells, R848 stimulation, 20 hrs, SEAP reporter; read-out: HEK/hTLR7 IC50
T2 construct: host or cells: HEK293 (HEK-Blue hTLR7)
T2 sequence (Q9NYK1 27-1049): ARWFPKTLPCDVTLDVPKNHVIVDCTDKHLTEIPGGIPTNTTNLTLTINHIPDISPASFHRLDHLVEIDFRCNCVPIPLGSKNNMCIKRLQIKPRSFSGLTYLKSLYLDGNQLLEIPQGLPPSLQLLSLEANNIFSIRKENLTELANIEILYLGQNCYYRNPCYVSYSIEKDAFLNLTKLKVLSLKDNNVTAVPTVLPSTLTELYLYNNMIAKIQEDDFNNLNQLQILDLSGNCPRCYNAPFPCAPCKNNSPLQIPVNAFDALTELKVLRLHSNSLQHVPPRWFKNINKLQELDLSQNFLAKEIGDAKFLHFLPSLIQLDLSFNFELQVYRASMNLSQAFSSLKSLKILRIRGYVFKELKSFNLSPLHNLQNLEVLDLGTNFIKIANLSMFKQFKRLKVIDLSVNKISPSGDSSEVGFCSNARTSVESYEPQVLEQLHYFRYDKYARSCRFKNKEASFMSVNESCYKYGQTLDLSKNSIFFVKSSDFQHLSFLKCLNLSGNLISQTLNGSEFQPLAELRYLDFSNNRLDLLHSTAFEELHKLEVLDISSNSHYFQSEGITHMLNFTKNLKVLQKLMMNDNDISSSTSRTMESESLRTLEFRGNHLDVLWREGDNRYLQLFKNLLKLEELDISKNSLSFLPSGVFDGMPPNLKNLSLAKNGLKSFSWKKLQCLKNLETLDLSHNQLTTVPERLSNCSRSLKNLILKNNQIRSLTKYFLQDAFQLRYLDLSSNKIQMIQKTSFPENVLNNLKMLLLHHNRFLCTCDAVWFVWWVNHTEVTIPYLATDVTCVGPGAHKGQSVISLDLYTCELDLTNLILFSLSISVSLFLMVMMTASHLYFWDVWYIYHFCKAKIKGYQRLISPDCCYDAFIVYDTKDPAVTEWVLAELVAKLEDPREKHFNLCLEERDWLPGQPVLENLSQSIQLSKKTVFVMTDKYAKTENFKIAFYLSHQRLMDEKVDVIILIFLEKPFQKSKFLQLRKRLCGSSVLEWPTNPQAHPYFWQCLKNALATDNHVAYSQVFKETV
Protocol: The following tests were carried out in order to determine the activity of the compounds of formula (I) and (Ia) in HEK293-Blue-hTLR-7/8/9 cells assay.
HEK293-Blue-hTLR-7 cells assay:
A stable HEK293-Blue-hTLR-7 cell line was purchased from InvivoGen (Cat. #: hkb-htlr7, San Diego, Calif., USA). These cells were originally designed for studying the stimulation of human TLR7 by monitoring the activation of NF-κB. A SEAP (secreted embryonic alkaline phosphatase) reporter gene was placed under the control of the […] minimal promoter fused to five NF-κB and AP-1-binding sites. The SEAP was induced by activating NF-κB and AP-1 via stimulating HEK-Blue hTLR7 cells with TLR7 ligands. Therefore, the reporter expression was declined by TLR7 antagonist under the stimulation of a ligand, such as R848 (Resiquimod), for incubation of 20 hrs. The cell culture supernatant SEAP reporter activity was determined using QUANTI-Blue™ kit (Cat. #: rep-qb1, Invivogen, San Diego, Calif., USA) at a wavelength of 640 nm, a detection medium that turns purple or blue in the presence of alkaline phosphatase.
Then 20 μL of the supernatant from each well was incubated with […] Quanti-blue substrate solution at 37° C. for 2 hrs and the absorbance was read at 620-655 nm using a spectrophotometer. The signaling pathway that TLR7 activation leads to downstream NF-κB activation has been widely accepted, and therefore similar reporter assay was modified for evaluating TLR7 antagonist.

Row | SMILES | IC50 (human TLR8) [nM] | IC50 (human TLR7) [nM]
1 | Cc1cc(N2CC3(CN(C)C3)C2)cnc1N1CCN2[C@@H](C1)CN(c1cc(=O)n(C)c3ncccc13)C[C@@H]2C [Example 113, 4-[(4S,9aR)-4-methyl-8-[3-methyl-5-(6-methyl-2,6-diazaspiro[3.3]heptan-2-yl)-2-pyridyl]-3,4,6,7,9,9a-hexahydro-1H-pyrazino[1,2-a]pyrazin-2-yl]-1-methyl-1,8-naphthyridin-2-one] | 142 | 6
2 | CO[C@@H]1CN(c2nc(C)cc(N3CCN4[C@@H](C3)CN(c3ccc(C#N)c5ncccc35)C[C@H]4C)n2)C[C@H]1N [Example 45, 5-[(4R,9aR)-8-[2-[(3R,4R)-3-amino-4-methoxy-pyrrolidin-1-yl]-6-methyl-pyrimidin-4-yl]-4-methyl-3,4,6,7,9,9a-hexahydro-1H-pyrazino[1,2-a]pyrazin-2-yl]quinoline-8-carbonitrile] | 28 | 18
3 | C[C@@H]1CN(c2ccc(C#N)c3ncccc23)C[C@@H]2CN(c3nccc(N4CC(N)C4)n3)CCN21 [Example 39, 5-[(4R,9aR)-8-[4-(3-aminoazetidin-1-yl)pyrimidin-2-yl]-4-methyl-3,4,6,7,9,9a-hexahydro-1H-pyrazino[1,2-a]pyrazin-2-yl]quinoline-8-carbonitrile] | 17 | 21
4 | C[C@@H]1CN(c2ccc(C#N)c3ncccc23)C[C@@H]2CN(c3nccc(N4CCNCC4)n3)CCN21 [Example 30, 5-[(4R,9aR)-4-methyl-8-(4-piperazin-1-ylpyrimidin-2-yl)-3,4,6,7,9,9a-hexahydro-1H-pyrazino[1,2-a]pyrazin-2-yl]quinoline-8-carbonitrile] | 21 | 16
5 | [2H]c1ccc2c(N3C[C@@H]4CN(CCc5ccc(N6CC7(CN(C)C7)C6)nc5)CCN4[C@H](C)C3)ccc(C#N)c2n1 [Example 64, 5-[(4R,9aS)-4-methyl-8-[2-[6-(6-methyl-2,6-diazaspiro[3.3]heptan-2-yl)-3-pyridyl]ethyl]-3,4,6,7,9,9a-hexahydro-1H-pyrazino[1,2-a]pyrazin-2-yl]-2-deuterio-quinoline-8-carbonitrile] | 32 | 23
6 | CO[C@@H]1CN(c2ccc(CCN3CCN4[C@@H](C3)CN(c3ccc(C#N)n5ncc(F)c35)C[C@H]4C)cn2)C[C@H]1N [Example 67, 4-[(4R,9aS)-8-[2-[6-[(3R,4R)-3-amino-4-methoxy-pyrrolidin-1-yl]-3-pyridyl]ethyl]-4-methyl-3,4,6,7,9,9a-hexahydro-1H-pyrazino[1,2-a]pyrazin-2-yl]-3-fluoro-pyrazolo[1,5-a]pyridine-7-carbonitrile] | 84 | 65

Compounds with a lower IC50 (human TLR8), results first:

Row | IC50 (human TLR8) [nM] | IC50 (human TLR7) [nM] | SMILES
7 | 14 | 20 | C[C@@H]1CN(c2ccc(C#N)c3ncccc23)C[C@@H]2CN(c3cc(N4CCNCC4)ccn3)CCN21 [Example 34, 5-[(4R,9aR)-4-methyl-8-(4-piperazin-1-yl-2-pyridyl)-3,4,6,7,9,9a-hexahydro-1H-pyrazino[1,2-a]pyrazin-2-yl]quinoline-8-carbonitrile]
8 | 12 | 17 | C[C@@H]1CN(c2ccc(C#N)c3ncccc23)C[C@@H]2CN(Cc3ccc4c(c3)CNCC4)CCN21 [Example 5, 5-[(4R,9aS)-4-methyl-8-(1,2,3,4-tetrahydroisoquinolin-7-ylmethyl)-3,4,6,7,9,9a-hexahydro-1H-pyrazino[1,2-a]pyrazin-2-yl]quinoline-8-carbonitrile]
9 | 9 | 26 | CO[C@@H]1CN(c2ccc(CCN3CCN4[C@@H](C3)CN(c3ccc(C#N)c5ncccc35)C[C@H]4C)nc2)C[C@H]1N [Example 13, 5-[(4R,9aS)-8-[2-[5-[(3R,4R)-3-amino-4-methoxy-pyrrolidin-1-yl]-2-pyridyl]ethyl]-4-methyl-3,4,6,7,9,9a-hexahydro-1H-pyrazino[1,2-a]pyrazin-2-yl]quinoline-8-carbonitrile]
10 | 8 | 16 | [2H]c1ccc2c(N3C[C@@H]4CN(Cc5ccc6c(c5)CNCC6)CCN4[C@H](C)C3)ccc(C#N)c2n1 [Example 61, 5-[(4R,9aS)-4-methyl-8-(1,2,3,4-tetrahydroisoquinolin-7-ylmethyl)-3,4,6,7,9,9a-hexahydro-1H-pyrazino[1,2-a]pyrazin-2-yl]-2-deuterio-quinoline-8-carbonitrile]
11 | 8 | 29 | N#Cc1ccc(N2CCN3CCN(c4cccc5c4CNC5)CC3C2)c2cccnc12 (stereo not shown) [Example 35, 5-(8-isoindolin-4-yl-3,4,6,7,9,9a-hexahydro-1H-pyrazino[1,2-a]pyrazin-2-yl)quinoline-8-carbonitrile]
12 | 6 | 27 | [2H]c1ccc2c(N3C[C@@H]4CN(c5ccc(CN6C[C@@H](N)[C@H](OC)C6)c(C)n5)CCN4[C@@H](C)C3)ccc(C#N)c2n1 [Example 123, 5-[(4S,9aR)-8-[5-[[(3R,4R)-3-amino-4-methoxy-pyrrolidin-1-yl]methyl]-6-methyl-2-pyridyl]-4-methyl-3,4,6,7,9,9a-hexahydro-1H-pyrazino[1,2-a]pyrazin-2-yl]-2-deuterio-quinoline-8-carbonitrile]
13 | 4 | 5 | [2H]c1ccc2c(N3C[C@@H]4CN(c5ccc(CCN6C[C@H](OC)[C@@H](N)C6)cn5)CCN4[C@H](C)C3)ccc(C#N)c2n1 [Example 109, 5-[(4R,9aR)-8-[5-[2-[(3S,4S)-3-amino-4-methoxy-pyrrolidin-1-yl]ethyl]-2-pyridyl]-4-methyl-3,4,6,7,9,9a-hexahydro-1H-pyrazino[1,2-a]pyrazin-2-yl]-2-deuterio-quinoline-8-carbonitrile]
14 | 4 | 2 | [2H]c1ccc2c(N3C[C@@H]4CN(c5ccc([C@@H]6CNCCO6)cc5)CCN4[C@@H](C)C3)ccc(C#N)c2n1 [Example 106, 5-[(4S,9aS)-4-methyl-8-[4-[(2R)-morpholin-2-yl]phenyl]-3,4,6,7,9,9a-hexahydro-1H-pyrazino[1,2-a]pyrazin-2-yl]-2-deuterio-quinoline-8-carbonitrile]
